From patent EP1983049B1, “Peptides binding to the Lck-SH3 and Hck-SH3 domains” (Forschungszentrum Jülich GmbH, priority 2005, dated 2006) come the findings set out here.

Where no end group is shown, it is not given here. A value given as a limit tells only on which side of the number the result lay.

Assay [1] addresses PI3K SH3 Domäne (Homo sapiens, UniProt P27986). In words: Fluorescence titration (intrinsic tryptophan fluorescence), binding constant. The note with it: PI3K SH3 domain; fluorescence titration, 0,5 µM SH3 domain in PBS, 1mM DDT; each experiment done twice. The text has this: (§1) Die Messungen wurden im Wesentlichen wie bei Schweimer K, Hoffmann S, Bauer F, Friedrich U, Kardinal C, Feller SM, Biesinger B, Sticht H. Structural investigation of the bindung of a herpesviral protein to the SH3 domain of tyrosine kinase Lck. Biochemistry. 2002 Apr 23;41(16):5120-30 beschrieben unter Verwendung eines Perkin-Elmer LS 55 Fluoreszenzspektrometers bei einer Anregungswellenlänge von 290 nm und einer Emissionswellenlänge von 345 nm durchgeführt. […] Nach PD1-Zugabe wurde jeweils die resultierende Fluoreszenzänderung aufgezeichnet. Durch eine Kontrolltitration (Hintergrundmessung), bei welcher die Peptidlösung gegen Wasser ersetzt wurde, konnten die Abweichungen der Fluoreszenzweite, welche durch eine sinkende SH3-Endkonzentration während der Titration hervorgerufen wurden, ausgeglichen werden. […] F = Fmin + (([Pges] + [Lges] + Kd)/(2)-sqrt(((([Pges]+[Lges]+Kd))^2)/(4)-[Pges]*[Lges]))*((Fmax-Fmin))/(Pges) [formula]
(§2) Durch nichtlineare Regression mit Fmax und Kd als angepasste Parameter konnten die experimentellen Daten an obige Gleichung angepasst werden.

In assay [2] the target is Abl SH3 Domäne (Homo sapiens, UniProt P00519). Described as above. The settings on record: Abl SH3 domain; fluorescence titration, 0,5 µM SH3 domain in PBS, 1mM DDT; each experiment done twice.
Chain of Abl SH3 Domäne (P00519 61-121 limits assumed): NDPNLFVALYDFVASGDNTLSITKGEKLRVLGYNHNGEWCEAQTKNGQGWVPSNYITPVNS
Source text: as §1, §2

For assay [3], the target named is Hck-SH3 (Homo sapiens, UniProt P08631). The description is as above. The settings on record: Hck SH3 domain; fluorescence titration, 0,5 µM SH3 domain in PBS, 1mM DDT; each experiment done twice.
Chain of Hck-SH3 (P08631 78-138 limits assumed): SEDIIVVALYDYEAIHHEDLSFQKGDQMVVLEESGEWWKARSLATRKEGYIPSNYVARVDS
Source text: as §1, §2

Assay [4] deals with T1, Lck-SH3 (Homo sapiens, UniProt P06239).
T1 construct: Inkubation der Membran mit dem zu untersuchenden Protein (hier Lck-SH3); made in house
T1 sequence (P06239 61-121 limits assumed): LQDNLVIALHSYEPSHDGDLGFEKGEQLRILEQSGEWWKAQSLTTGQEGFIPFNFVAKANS
The assay is described as above. The settings on record: Lck SH3 domain; fluorescence titration, 0,5 µM free SH3 domain in PBS, 1mM DDT; each experiment done twice.
Source text: as §1, §2

For assay [5], the target named is T2, GST-Lck-SH3 (Homo sapiens, UniProt P06239).
T2 construct: rekombinant hergestellte Lck SH3 als Fusion mit Glutathion-S-Transferase (GST-Lck-SH3); made in house
T2 sequence (P06239 61-121 limits assumed): as above
The assay can be described thus: anti-Phage-ELISA, relative Lck-SH3 binding activity of phage clones. The note with it: phage-displayed peptide; detection at 450 nm; Fig. 1; 7 single experiments. The text has this: Dieser Bindungstest ist ein häufig verwendeter Test zur schnellen Bestimmung relativer Bindungsstarken selektierter Peptide, die hierbei noch physikalisch mit dem Phagen verknüpft vorliegen. Dieser Schritt dient auch zur Eliminierung von (bei dieser Methode nicht selten auftretenden) Phagenvarianten, die z. B. aufgrund ihrer Affinität zur Plastikoberfläche der verwendeten Mikrotiterplatten, angereichert werden und die somit zur Verfälschung der Ergebnisse führen können. Eine grundsätzliche Beschreibung der Methode findet sich z. B. unter Sparks et al. Methods Enzymol. 1995; 255:498-509.
GST-Lck-SH3 Protein wurde in einer Konzentration von 10 µg/ml in Tris-Bis über Nacht bei 4°C in Mikrotiterplatten immobilisiert. Verbleibende Bindungsstellen wurden durch 2-stündige Inkubation mit Blockierungspuffer (Bis-Tris mit 2.% Magermilchpulver) abgesättigt.
In einer anderen Mikrotiterplatte wurden zuerst je 100 µl Suspension der zu testenden Phagenvariante mit 100 µl Blockierungspuffer für 20 Minuten vorinkubiert und erst dann für 1 Stunde zum immobilisierten GST-Lck-SH3 Protein gegeben. Nach einem Waschschritt mit Bis-Tris wurde ein Meerrettich-Peroxidase-konjugierter Antikörper zugegeben und die Platten für eine weitere Stunde inkubiert. […]
On the technique in general: An ELISA detects its analyte on a solid surface through an enzyme-linked reagent.

Assay [6] has as its target T1, Lck-SH3. The assay can be described thus: PepSpot membrane substitution analysis, relative Lck binding activity. The settings on record: 7 of 12 positions of PD1-R substituted, 0,5 µg/ml SH3 protein, Fig. 4. The text has this: Eine andere Methode, Protein-Protein-Wechselwirkungen zu untersuchen, ist die Benutzung so genannter PepSpot-Membranen. Sie basiert auf der Synthese von immobilisierten Peptiden auf aktivierten Membrane und kann z. B. zur Optimierung der Bindungseigenschaften bereits identifizierter Liganden durch Substitutionsanalyse verwendet werden. Nach der Inkubation der Membran mit dem zu untersuchenden Protein (hier Lck-SH3) und der anschließenden Detektion wird anhand der Spotfärbung eine Interaktion des Proteins mit den entsprechenden immobilisierten Peptiden nachgewiesen. Die Stärke der Spotintensitäten ist ein Maß für die Stärke der Bindung. Eine zusammenfassende Übersicht findet sich bei Reinecke U., Volkmer-Engert R., Schneider-Mergener J. Applikation of peptide arrays prepared by the SPOT-technology. Current Opinion in Biotechnology 2001, 12:59-64.
Für den Immunoassay wurde die PepSpot-Membran über Nacht in 20 ml Blocking Puffer geblockt. Nach einmaligem Waschen mit T-TBS für 10 min wurde die Membran für 3 h mit 0,5 µg/ml SH3 Protein in 20 ml Blocking Puffer inkubiert. Danach wurde die Membran dreimal für je 10 min mit T-TB S gewaschen. […] Die Spot-Intensitäten wurden mit der QuantityOne Software (Bio-Rad, München) ausgewertet Die Analyse der Spot-Intensitäten erfolgte nach Subtraktion des Hintergrundes. […]

Chain of PI3K SH3 Domäne (P27986 3-79 limits assumed): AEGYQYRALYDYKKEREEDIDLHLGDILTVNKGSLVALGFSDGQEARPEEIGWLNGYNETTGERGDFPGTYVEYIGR

On to HSKYPLPPLPSL [PD1], for which the Kd in assay [1] was 112 ± 10.1 µM; in assay [2], above 300 µM; in assay [3] it was 0.23 ± 0.03 µM; in assay [4], 48.7 ± 1.65 µM.
Consider HTLQIPQHATSF, for which, in assay [5], the “relative Lck-SH3-Bindungsaktivität” value is “nicht bindende”.
As for HSKRPLPPLPSL [PD1-R], the Kd was 13.1 ± 0.48 µM in assay [1], above 300 µM in assay [2], 0.47 ± 0.02 µM in assay [3] and 23.1 ± 1.97 µM in assay [4].
As to “HFKRPLPPLPSL [PD1-R(-5)F, substitution variant of PD1-R found on PepSpot membrane]”, the “Bindung an die Lck-SH3 (Spot-Intensität)” value in assay [6] is on record as “stärkste Bindung”.

The term Kd denotes the concentration at which binding is half-saturated. A high value points to a looser complex.
